What was measured:
[1] = test system: A549 lung carcinoma cell line xenograft; assay: Mouse xenograft model with A549 lung carcinoma cell line; format: in vivo
Protocol: Based on the improved rat PK for 14c, it was dosed at 2 and 6 mpk along with lead 1 at 30 mpk—in an effort to achieve similar in vivo exposure profiles—in a mouse xenograft model with the lung carcinoma cell line A549 (Figure 4). […] The 6 mpk dose of 14c reduced the tumor volume by more than 50%. Regrowth was included to assess a possible growth lag period, but as expected, tumor regrowth resumed following mTOR inhibitor withdrawal.[22]
All animal studies were conducted in accordance with Takeda California Institutional Animal Care and Use Committee guidelines in a facility accredited by the American Association for Accreditation of Laboratory Animal Care. Female Nu/Nu mice (Balb/c), approximately 28 days of age and weighing 20 to 23 grams were obtained from Harlan Laboratories. Immuno-compromised and/or inbred mice are used extensively for in vivo cancer research for detecting pharmacological capabilities induced by anti-cancer agents and therefore were chosen as the most appropriate animal model for this study. Five million A549 cells/animal (0.2 mL) w/ Matrigel were implanted S.C. into the right flank of Balb/c Nu/Nu mice.
Low passage A549 cells were grown in F12 media and supplied at a concentration of 50 million cells/mL in DPBS. Treatment was initiated when all study animals had small tumors averaging approximately 150-180 mg. Dosing solutions/suspensions were prepared every 5 days. Compound 1 was suspended in 30% Captisol in 0.05 M MSA pH ~1.5. Compound 14c was suspended in 0.5% MC. Dose solutions/suspensions were given orally at a dose volume of 5 mL/kg. […] The general health of the mice was monitored, and mortality was assessed daily. Tumor dimensions were recorded 2 times per week starting one day before the first day of treatment. Toxicity was assessed as net body weight loss and lethality. Tumor weights are calculated using the equation (a x b2)/2, where a and b refer to the larger and smaller dimensions collected at each measurement. Error bars in each plot of % tumor volume change vs. days of treatment were calculated as the standard error of the means. […]

PI3Kγ = PI3Kγ selectivity; format: biochemical
[2] = Ames test with and without S9; format: cell-based; conditions: with and without S9 activation
PI3Kβ = PI3Kβ selectivity; format: biochemical
DNA-PK = target: T1, DNA-PK (Homo sapiens, UniProt P78527); assay: DNA-PK inhibition (Invitrogen); format: biochemical
T1 construct: purchased Invitrogen

PI3Kδ = PI3Kδ selectivity; format: biochemical
[3] = test system: interleukin-1 receptor-associated kinase 4 (IRAK1); assay: Kinase panel (Invitrogen) at 1 μM, IRAK1; format: biochemical
[4] = target: human ether-a-go-go (hERG) (Homo sapiens, UniProt Q12809); assay: hERG patch clamp; format: cell-based
[5] = target: T2, cyclin-dependent kinase 9 (CDK9) (Homo sapiens, UniProt P50750); assay: Kinase panel (Invitrogen) at 1 μM, CDK9; format: biochemical
T2 construct: purchased Invitrogen

panel of 298 kinases = assay: Panel of 298 kinases (Invitrogen); format: biochemical; conditions: 298 kinases tested at 1 μM
[6] = target: T3, FRAP1 (mTOR) recombinant protein (Homo sapiens, UniProt P42345); assay: mTOR kinase inhibition assay (TR-FRET, GFP-4E-BP1); format: biochemical; conditions: enzyme
T3 construct: purchased Invitrogen (Carlsbad, CA, US)
Protocol: FRAP1 (mTOR) recombinant protein and GFP-4E-BP1 were purchased from Invitrogen (Carlsbad, CA, US).
The kinase activity assay was conducted in 50 mM Hepes buffer containing 10 mM MgCl2, 0.01% Brij, 0.2 mM EDTA, 2 mM DTT and 1% DMSO (after compound addition) at pH 7.3.
The IC50 value for each compound was determined in the presence of compound (various concentrations, from 0 to 10 μM) and a fixed amount of ATP (50 μM, final concentration), substrate GFP-4E-BP1 (400 nM, final concentration). The enzymatic reaction was initiated by adding FRAP1 (mTOR) (2 nM, final concentration). The assay was conducted at room temperature (~22 °C). After 30 min, the enzymatic reaction was stopped using Tb-anti-p4E-BP1 (2 nM final concentration, Invitrogen) and EDTA (20 mM final concentration, Sigma) in TR-FRET dilution buffer provided by Invitrogen. All the reagents were dispensed using a Multidrop Combi reagent dispenser (ThermoFisher Scientific, Waltham, […]
The release of product was detected using a BMG PHERAstar plate reader (BMG LABTECH, Ortenberg, Germany) and the Lantha Screen module (337 nm excitation wavelength) and measuring the ratio of fluorescence 520/490 nm (emission wavelengths). Experimental data was fitted using Eq. (1): […]

mouse xenograft models = assay: Mouse xenograft models (earlier efficacy of lead 1); format: in vivo; conditions: 10 and 30 mpk

Chain of human ether-a-go-go (hERG) (Q12809 whole entry): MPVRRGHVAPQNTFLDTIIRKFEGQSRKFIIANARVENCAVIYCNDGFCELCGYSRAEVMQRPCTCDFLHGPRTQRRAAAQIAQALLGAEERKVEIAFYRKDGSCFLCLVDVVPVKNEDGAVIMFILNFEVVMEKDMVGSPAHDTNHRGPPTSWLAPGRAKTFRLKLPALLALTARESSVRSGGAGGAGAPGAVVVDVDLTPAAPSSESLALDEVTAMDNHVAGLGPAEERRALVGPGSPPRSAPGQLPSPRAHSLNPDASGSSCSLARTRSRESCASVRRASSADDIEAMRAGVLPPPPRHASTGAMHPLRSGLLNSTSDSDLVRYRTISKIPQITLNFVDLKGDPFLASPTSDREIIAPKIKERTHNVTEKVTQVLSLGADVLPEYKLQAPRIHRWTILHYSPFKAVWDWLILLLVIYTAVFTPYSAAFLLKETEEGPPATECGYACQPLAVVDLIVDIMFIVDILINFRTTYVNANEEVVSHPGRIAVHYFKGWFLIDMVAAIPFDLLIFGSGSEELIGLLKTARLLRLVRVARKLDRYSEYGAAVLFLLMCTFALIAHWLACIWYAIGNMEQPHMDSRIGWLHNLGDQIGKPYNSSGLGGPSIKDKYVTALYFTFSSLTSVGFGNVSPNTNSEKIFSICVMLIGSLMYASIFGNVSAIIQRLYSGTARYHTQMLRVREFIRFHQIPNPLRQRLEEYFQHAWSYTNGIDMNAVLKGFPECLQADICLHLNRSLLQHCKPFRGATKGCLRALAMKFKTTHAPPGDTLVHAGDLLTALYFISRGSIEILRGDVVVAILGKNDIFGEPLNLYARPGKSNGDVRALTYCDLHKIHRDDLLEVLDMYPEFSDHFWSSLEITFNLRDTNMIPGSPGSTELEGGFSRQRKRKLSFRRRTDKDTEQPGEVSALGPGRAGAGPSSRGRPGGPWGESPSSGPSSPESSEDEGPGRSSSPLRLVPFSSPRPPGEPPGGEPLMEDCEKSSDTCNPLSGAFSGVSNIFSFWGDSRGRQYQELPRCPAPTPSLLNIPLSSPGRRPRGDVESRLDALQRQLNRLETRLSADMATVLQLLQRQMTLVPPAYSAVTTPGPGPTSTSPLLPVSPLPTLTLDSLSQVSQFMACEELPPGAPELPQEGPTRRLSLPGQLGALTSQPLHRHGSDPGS
T3 sequence (P42345 1360-2549 limits assumed): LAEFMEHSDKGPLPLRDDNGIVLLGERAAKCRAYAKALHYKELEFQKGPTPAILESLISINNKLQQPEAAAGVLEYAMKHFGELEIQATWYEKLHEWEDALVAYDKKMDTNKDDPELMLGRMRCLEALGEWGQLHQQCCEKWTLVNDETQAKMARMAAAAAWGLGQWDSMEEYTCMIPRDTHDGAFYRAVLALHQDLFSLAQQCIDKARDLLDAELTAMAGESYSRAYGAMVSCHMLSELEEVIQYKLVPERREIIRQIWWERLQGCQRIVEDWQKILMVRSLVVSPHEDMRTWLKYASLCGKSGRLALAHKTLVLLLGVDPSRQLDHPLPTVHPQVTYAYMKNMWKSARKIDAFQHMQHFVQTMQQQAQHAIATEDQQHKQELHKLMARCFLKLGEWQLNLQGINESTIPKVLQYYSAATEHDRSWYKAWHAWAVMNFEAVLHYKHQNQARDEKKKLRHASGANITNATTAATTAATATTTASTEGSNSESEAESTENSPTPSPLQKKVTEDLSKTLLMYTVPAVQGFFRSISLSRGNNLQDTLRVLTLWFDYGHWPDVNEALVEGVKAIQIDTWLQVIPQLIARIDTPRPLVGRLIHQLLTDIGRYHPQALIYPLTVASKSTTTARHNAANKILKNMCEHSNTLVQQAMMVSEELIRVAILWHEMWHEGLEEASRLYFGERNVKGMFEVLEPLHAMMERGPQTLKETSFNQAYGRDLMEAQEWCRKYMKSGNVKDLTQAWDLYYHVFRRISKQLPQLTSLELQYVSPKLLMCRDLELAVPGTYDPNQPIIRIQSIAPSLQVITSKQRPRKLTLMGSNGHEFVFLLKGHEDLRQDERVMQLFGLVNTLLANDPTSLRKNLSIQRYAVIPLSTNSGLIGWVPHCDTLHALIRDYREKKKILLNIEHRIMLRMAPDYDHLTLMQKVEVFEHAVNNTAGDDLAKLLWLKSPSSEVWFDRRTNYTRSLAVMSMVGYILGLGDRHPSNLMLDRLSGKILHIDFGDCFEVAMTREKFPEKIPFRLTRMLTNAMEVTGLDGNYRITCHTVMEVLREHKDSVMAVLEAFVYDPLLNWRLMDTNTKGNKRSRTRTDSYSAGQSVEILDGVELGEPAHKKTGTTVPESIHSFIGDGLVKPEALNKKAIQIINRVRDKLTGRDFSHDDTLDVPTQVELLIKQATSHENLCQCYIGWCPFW
T2 sequence (P50750 whole entry): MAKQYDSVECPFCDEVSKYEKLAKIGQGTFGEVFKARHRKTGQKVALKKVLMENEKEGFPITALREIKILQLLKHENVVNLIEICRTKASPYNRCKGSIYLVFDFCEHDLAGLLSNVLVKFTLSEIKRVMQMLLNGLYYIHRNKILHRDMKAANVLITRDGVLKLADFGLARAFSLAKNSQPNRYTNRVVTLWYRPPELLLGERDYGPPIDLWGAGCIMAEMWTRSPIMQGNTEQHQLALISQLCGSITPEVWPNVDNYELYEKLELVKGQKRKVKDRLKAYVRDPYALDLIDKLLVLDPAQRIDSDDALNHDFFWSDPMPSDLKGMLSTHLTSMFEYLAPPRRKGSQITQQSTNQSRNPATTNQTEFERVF
T2 sequence (O60563 whole entry partner): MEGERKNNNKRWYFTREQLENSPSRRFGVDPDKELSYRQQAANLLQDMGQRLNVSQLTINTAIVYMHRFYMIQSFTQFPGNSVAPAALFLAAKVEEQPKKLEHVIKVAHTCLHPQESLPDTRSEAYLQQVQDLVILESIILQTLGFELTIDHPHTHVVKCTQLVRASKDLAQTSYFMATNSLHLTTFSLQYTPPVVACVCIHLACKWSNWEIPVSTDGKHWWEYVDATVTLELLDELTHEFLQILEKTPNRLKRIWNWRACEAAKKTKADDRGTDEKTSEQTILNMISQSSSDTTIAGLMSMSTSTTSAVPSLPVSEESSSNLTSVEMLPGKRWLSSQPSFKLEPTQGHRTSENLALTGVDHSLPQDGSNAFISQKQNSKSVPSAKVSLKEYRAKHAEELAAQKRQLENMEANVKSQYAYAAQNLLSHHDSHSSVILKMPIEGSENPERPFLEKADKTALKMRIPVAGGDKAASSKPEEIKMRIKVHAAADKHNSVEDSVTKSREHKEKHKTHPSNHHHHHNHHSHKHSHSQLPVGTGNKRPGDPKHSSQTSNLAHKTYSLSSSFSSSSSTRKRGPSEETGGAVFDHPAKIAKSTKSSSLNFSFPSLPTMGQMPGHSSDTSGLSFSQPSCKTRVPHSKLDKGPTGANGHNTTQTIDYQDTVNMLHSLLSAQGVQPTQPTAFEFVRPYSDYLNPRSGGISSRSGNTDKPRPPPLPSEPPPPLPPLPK

SMILES	Tumor growth ([1]; 2 mpk po QD 14 days)	Tumor volume reduction ([1]; 6 mpk po QD 14 days)	Selectivity against PI3Kγ (PI3Kγ) [×]	Ames test [2]	Selectivity against PI3Kβ (PI3Kβ) [×]	inhibition at 1 µM (DNA-PK) [%]	Selectivity against PI3Kδ (PI3Kδ) [×]	IRAK1 inhibition [3] [%]	IC50 [4] [nM]	inhibition at 1 µM [5] [%]	Kinase panel selectivity (panel of 298 kinases)	Tumor growth ([1]; 30 mpk po QD 14 days)	IC50 [6] [nM]	In vivo efficacy (mouse xenograft models)
C[C@@]12COCCN1c1nc(-c3cccc4[nH]ccc34)ncc1N([C@H]1CC[C@H](O)CC1)C2=O [14c]	fully inhibited tumor growth	more than 50%	180	negative	180	13	6	22	> 40000	34	only two had inhibition >20%			
CC(F)(F)CN1C(=O)[C@]2(C)COCCN2c2nc(-c3ccc(NC(=O)NC4CC4)cc3)ncc21 [compound 1]												fully inhibited tumor growth	12	significant in vivo efficacy

— article PMC10641921, “Optimization of mTOR Inhibitors Using Property-Based Drug Design and Free–Wilson Analysis for Improved In Vivo Efficacy” (ACS Medicinal Chemistry Letters, 2023)
